Results as given in PMC9054546, “Synthesis and molecular modeling studies of cholinesterase inhibitor dispiro[indoline-3,2′-pyrrolidine-3′,3′′-pyrrolidines]” (RSC Advances, 2020).
Several values for one entry are separate records, joined by “and”; a condition that tells them apart may be missing. Equal values may be shown once. Read-outs that look alike come from different tables or passages of the source.

Experiments:
[1] = target: T1, AChE (Homo sapiens, UniProt P22303); experiment: 2D-QSAR (BMLR, CODESSA-Pro) model, AChE inhibitors; details: observed minus estimated IC50
Text: (§1) The cholinesterase properties observed were undertaken by CODESSA-Pro software accessible for optimizing 2D-QSAR models.[39–41] This is useful for well understanding the bio-observations and identifying the parameters necessary for bio-potency. Three descriptor QSAR models were developed due to the AChE and BChE inhibitory properties of the synthesized dispiro-compounds 8a–l (ESI Tables S4–S9, Fig. S40 and S41, details of the QSAR descriptors are also mentioned in the ESI). ^† […]
(§2) Goodness of the QSAR models was supported by the comparative values of the correlation coefficient (R^2) with their cross validation of leave one-out (R^2cvOO) and leave many-out (R^2cvMO) [R^2 = 0.923, 0.979; R^2cvOO = 0.882, 0.936; R^2cvMO = 0.904, 0.956, for AChE and BChE models, respectively]. Standard deviation (s^2) and Fisher criteria (F) values of the models also support their goodness (s^2 = 0.026, 0.005; […]. Additionally, the correlations of the observed and predicted values “specially the high potent synthesized compounds” add good support for the attained models. […]
(§3) Molecular modeling studies
(§4) The synthesized dispiro[indoline-3,2'-pyrrolidine-3',3''-pyrrolidines] 8a‒l […]
(§5) 2D-QSAR modeling by CODESSA-Pro (comprehensive descriptors for structural and statistical analysis) software. Geometry of the compounds was initially optimized by AM1 technique using hyperChem 8.0 then, uploaded to CODESSA-Pro for final geometrical structure optimization by MOPAC.10‒12 CODESSA-Pro calculated 656 molecular descriptors (constitutional, topological, geometrical, charge-related, semi-empirical, thermodynamical, molecular-type, atomic-type and bond-type descriptors) for […]
(§6) the exported bio-active agents. Mathematical transformation of the experimental values […]
(§7) QSAR model. The best multi-linear regression (BMLR) technique was utilized which is a stepwise search for the best n-parameter regression equations (where n stands for the number of descriptors used), based on the highest R2 (squared correlation coefficient), R2cvOO (squared cross-validation “leave one-out, LOO” coefficient), R2cvMO (squared cross-validation “leave many-out up to 20% of the training set, LMO” coefficient), F (Fisher statistical significance criteria) values, and s2 (standard deviation). The QSAR up to 3-descriptor model describing the biological activity of the bio-active agents were generated (obeying the thumb rule of 4:1 which is the ratio between the data points and the number of QSAR descriptor).
(§8) Minimum (>0.1) bond order for atom C is an atomic type descriptor with the […]
(§9) why the higher descriptor value, the lower AChE inhibitory efficacy of the tested agent as […]
(§10) 2/SQRT(TMSA) (MOPAC PC) is a charge related descriptor with relatively high […]
(§11) . Compounds with high descriptor value predicted low AChE
(§12) 0.11715). HDCA2 (area weighed surface charge of hydrogen bonding donor atoms) can be calculated by equ. (1). 13
(§13) HDCA2 = D … .DtotH‒donor (1)
(§14) Where, standsSD for the solvent accessible surface area of H-bonding donor H atoms (selected by threshold charge), is the partialqD charge on H-bonding donor H atoms (selected by threshold charge) and is the totalStot solvent accessible molecular surface […]
(§15) Square root of surface area for atom C is also a charge related descriptor with […]
(§16) . For this reason, the higher descriptor value of […]

[2] = tested on: mice; experiment: Acute toxicological bio-assay in mice; format: in vivo; details: intraperitoneal, 50, 100 and 250 mg kg−1, recorded 24 h post-administration
Procedure: Albino mice weighing 20–25 g were divided into 4 groups of 6 mice each. Administrations of the tested compounds dissolved in saline solution (0.9%) by the aid of few drops of Tween 80 were given intraperitoneally in 50, 100 and 250 mg kg^−1 (mice body weight). The control group was given a saline solution only with few drops of Tween 80. The toxic symptoms and mortality rates were recorded 24 h post-administration in each group.

[3] = target: T2, BChE (Homo sapiens, UniProt P06276); experiment: biochemical; details: for SI(BChE/AChE): selectivity index BChE/AChE
Procedure: Butyrylthiocholine iodide and acetylthiocholine were utilized as substrates in BChE and AChE assays, respectively, where DTNB was served as indicator. All compounds were dissolved in MeOH. […] Blank assays were performed by replacing the enzyme (20 μL) with buffer and their absorbances were recorded for correction of the spontaneous lysis of the indicator or inherent color of the inhibitor. […]

[4] = target: T2, BChE; experiment: 2D-QSAR (BMLR, CODESSA-Pro) model, BChE inhibitors; details: observed minus estimated IC50
Text: as §1, §2, §3, §4, §5, §6, §7, §8, §9, §10, §11, §12, §13, §14, §15, §16
partial positively and negatively charged surface area can be calculated by equs. (2) and […]
PPSA3 = A … .. (2)A∈{δA>0}
PNSA3 = A … ..A∈{δA>0} (3)
Where, is the positively/negativelySA charged solvent accessible atomic surface area and qA is the atomic partial charge.
ZX Shadow/ZX rectangle is a geometrical descriptor with the highest coefficient […]
. The higher descriptor value of […]
compounds 8c and 8e, respectively). Relative shadow areas of a molecule can be determined by equ. (4). 13
Where, C is contour of the projection of the molecule on the plane defined by two principal axes of the molecule (k = XY, XZ or YZ plane), , , = X • ν –x or yρ –y or zS(k) […]
Maximum atomic state energy for atom O is an atomic type descriptor. […]

[5] = target: T1, AChE; experiment: biochemical; details: for SI(AChE/BChE): selectivity index = IC50 (AChE)/IC50 (BChE)
Procedure: Butyrylthiocholine iodide and acetylthiocholine were utilized as substrates in BChE and AChE assays, respectively, where DTNB was served as indicator. All compounds were dissolved in MeOH. […] Blank assays were performed by replacing the enzyme (20 μL) with buffer and their absorbances were recorded for correction of the spontaneous lysis of the indicator or inherent color of the inhibitor.
Selectivity index (SI) for acetyl and butyryl cholinesterases was calculated as follow:SI(AChE/BChE) = IC50 (AChE)/IC50 (BChE)SI(BChE/AChE) = […]

[6] = tested on: RPE1 (human immortalized retinal pigment epithelial cell line); experiment: Antiproliferative/cytotoxicity MTT assay on normal cell line; format: cell-based; details: RPE-1, 72 h incubation, tested at 100, 50, 25 and 12.5 μM, read-out: IC50 against RPE1
Text: Antiproliferative properties of the synthesized agents 8a–l were considered against RPE1 (human immortalized retinal pigment epithelial cell line) normal cell line utilizing the standard MTT (tetrazolium salt) technique.[37]
The synthesized agents 8a–l were screened against RPE1 (human immortalized retinal pigment epithelial cell line) normal cell line to investigate their cytotoxicity by the standard mitochondrial dependent reduction of yellow MTT [3-(4,5-dimethylthiazol-2-yl)-2,5-diphenyl-tetrazolium bromide] to purple formazan technique.[37] Cells were suspended in DMEM in addition to 1% antibiotic–antimycotic mixture (10 000 μg mL^−1 potassium penicillin, 10 000 μg mL^−1 streptomycin sulfate and 25 μg mL^−1 amphotericin B), 10% fetal bovine serum and 1% L-glutamine at 37 °C, under 5% CO2 and 95% humidity. Cells were seeded at concentration of 30 000 cells per well in fresh complete growth medium in 96-well tissue culture microtiter plates for 24 h. […] 0.5% DMSO was used as negative control. Triplicate wells were prepared for each individual dose. After 72 h of incubation, medium was aspirated, 40 μl MTT salt (2.5 mg mL^−1) were added to each well and incubated for further 4 h at 37 °C. To stop the reaction and dissolve the formed crystals, 150 μL of 10% sodium dodecyl sulfate (SDS) in deionized water were added to each well and incubated overnight at 37 °C.
Data were collected as mean values for experiments performed in triplicates for each individual dose which had been measured by MTT assay. […] The percentage of cell survival was calculated according to the following equation. [drawing 1]
Statistical calculations for determination of the mean and standard error values were determined by SPSS 16 software.

[7] = 10 min incubation at 25 °C, read at 405 nm, read-out: IC50 of BChE (μM) ± SD
[8] = log transformation of the observed IC50, read-out: Observed log(IC50, μM), BChE (converted)
[9] = 10 min incubation at 25 °C, read at 405 nm, read-out: IC50 of AChE (μM) ± SD
[10] = log transformation of the observed IC50, read-out: Observed log(IC50, μM), AChE (converted)

T2 sequence (P06276 29-602): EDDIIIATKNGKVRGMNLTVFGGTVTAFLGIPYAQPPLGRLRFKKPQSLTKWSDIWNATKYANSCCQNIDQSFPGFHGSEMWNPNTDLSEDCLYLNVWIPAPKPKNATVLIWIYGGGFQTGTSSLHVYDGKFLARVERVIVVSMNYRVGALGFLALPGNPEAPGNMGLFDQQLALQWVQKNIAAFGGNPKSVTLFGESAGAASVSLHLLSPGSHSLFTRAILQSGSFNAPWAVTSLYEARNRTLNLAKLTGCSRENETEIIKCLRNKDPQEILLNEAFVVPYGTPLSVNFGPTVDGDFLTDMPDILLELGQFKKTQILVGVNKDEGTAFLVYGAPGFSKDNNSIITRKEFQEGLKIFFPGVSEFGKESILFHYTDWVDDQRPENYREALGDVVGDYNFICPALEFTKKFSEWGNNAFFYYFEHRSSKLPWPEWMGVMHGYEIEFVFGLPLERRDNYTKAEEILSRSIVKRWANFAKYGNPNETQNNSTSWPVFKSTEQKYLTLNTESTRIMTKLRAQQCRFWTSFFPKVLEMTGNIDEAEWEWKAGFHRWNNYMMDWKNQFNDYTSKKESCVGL
T1 sequence (P22303 32-614): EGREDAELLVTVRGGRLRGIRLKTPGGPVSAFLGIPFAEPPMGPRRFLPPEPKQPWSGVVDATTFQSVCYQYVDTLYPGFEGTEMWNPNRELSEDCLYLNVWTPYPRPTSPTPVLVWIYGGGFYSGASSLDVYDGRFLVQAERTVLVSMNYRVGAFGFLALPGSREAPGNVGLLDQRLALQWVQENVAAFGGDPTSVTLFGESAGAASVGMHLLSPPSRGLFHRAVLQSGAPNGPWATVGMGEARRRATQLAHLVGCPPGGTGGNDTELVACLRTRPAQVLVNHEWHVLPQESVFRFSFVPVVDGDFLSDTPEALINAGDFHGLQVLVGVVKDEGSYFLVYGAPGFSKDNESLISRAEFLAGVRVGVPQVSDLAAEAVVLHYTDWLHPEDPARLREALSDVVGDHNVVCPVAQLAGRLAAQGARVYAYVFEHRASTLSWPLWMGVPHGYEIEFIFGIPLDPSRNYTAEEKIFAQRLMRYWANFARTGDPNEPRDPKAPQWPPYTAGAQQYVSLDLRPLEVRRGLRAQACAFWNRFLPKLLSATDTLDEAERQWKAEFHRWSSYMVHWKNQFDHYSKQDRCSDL

## COc1ccc2c(c1)C1(C(=O)N2)N(C)CC(c2ccc(Cl)cc2)C12CC(=O)N(c1ccccc1)C2=O (stereo not drawn) [Compound 8e, 4′-(4-Chlorophenyl)-5-methoxy-1′-methyl-1′′-phenyldispiro[indoline-3,2′-pyrrolidine-3′,3′′-pyrrolidine]-2,2′′,5′′-trione]
[1]
  Error (difference between observed and estimated property values), AChE BMLR-QSAR model: 0.10 µM
[2]
  Mortality rates or toxicological symptoms: None of the tested agents reveal any mortality rates or toxicological symptoms
[3]; [7]
  IC50: 5.6 µM and 5.63 µM
[3]; [8]
  IC50: 5.63 µM
[3]
  SI(BChE/AChE): 1.68
[4]
  Error (difference between observed and estimated property values), BChE BMLR-QSAR model: 0.86 µM
[5]; [9]
  IC50: 3.4 µM and 3.35 µM
[5]; [10]
  IC50: 3.35 µM
[5]
  SI(AChE/BChE): 0.60
[6]
  IC50: > 100 µM

## COc1ccc(C2CN(C)C3(C(=O)Nc4ccc(OC)cc43)C23CC(=O)N(c2ccccc2)C3=O)cc1 (stereo not drawn) [Compound 8g, 5-Methoxy-4′-(4-methoxyphenyl)-1′-methyl-1′′-phenyldispiro[indoline-3,2′-pyrrolidine-3′,3′′-pyrrolidine]-2,2′′,5′′-trione]
[1]
  Error (difference between observed and estimated property values), AChE BMLR-QSAR model: -1.78 µM
[2]
  Mortality rates or toxicological symptoms: None of the tested agents reveal any mortality rates or toxicological symptoms
[3]; [7]
  IC50: 4.7 µM and 4.74 µM
[3]; [8]
  IC50: 4.74 µM
[3]
  SI(BChE/AChE): 1.50
[4]
  Error (difference between observed and estimated property values), BChE BMLR-QSAR model: -0.65 µM
[5]; [9]
  IC50: 3.2 µM and 3.15 µM
[5]; [10]
  IC50: 3.15 µM
[5]
  SI(AChE/BChE): 0.66
[6]
  IC50: > 100 µM

## CN1CC(c2ccccc2)C2(CC(=O)N(c3ccc(Cl)cc3)C2=O)C12C(=O)Nc1ccccc12 (stereo not drawn) [Compound 8h, 1′′-(4-Chlorophenyl)-1′-methyl-4′-phenyldispiro[indoline-3,2′-pyrrolidine-3′,3′′-pyrrolidine]-2,2′′,5′′-trione]
[1]
  Error (difference between observed and estimated property values), AChE BMLR-QSAR model: -1.03 µM
[2]
  Mortality rates or toxicological symptoms: None of the tested agents reveal any mortality rates or toxicological symptoms
[3]; [7]
  IC50: 5.3 µM and 5.34 µM
[3]; [8]
  IC50: 5.34 µM
[3]
  SI(BChE/AChE): 0.85
[4]
  Error (difference between observed and estimated property values), BChE BMLR-QSAR model: -0.81 µM
[5]; [9]
  IC50: 6.3 µM and 6.27 µM
[5]; [10]
  IC50: 6.27 µM
[5]
  SI(AChE/BChE): 1.17
[6]
  IC50: > 100 µM

## COc1ccc2c(c1)C1(C(=O)N2)N(C)CC(c2ccc(Cl)cc2)C12CC(=O)N(c1ccc(Cl)cc1)C2=O (stereo not drawn) [Compound 8l, 1′′,4′-Bis(4-chlorophenyl)-5-methoxy-1′-methyldispiro[indoline-3,2′-pyrrolidine-3′,3′′-pyrrolidine]-2,2′′,5′′-trione]
[1]
  Error (difference between observed and estimated property values), AChE BMLR-QSAR model: -7.93 µM
[3]; [7]
  IC50: 35.54 ± 0.33 µM
[3]; [8]
  IC50: 35.5 µM
[3]
  SI(BChE/AChE): 1.62
[4]
  Error (difference between observed and estimated property values), BChE BMLR-QSAR model: -0.71 µM
[5]; [9]
  IC50: 22 µM
[5]; [10]
  IC50: 22 µM
[5]
  SI(AChE/BChE): 0.62
[6]
  IC50: > 100 µM
